Measured values published in patent publication US20220348595A1, “COMPOUNDS AND METHODS FOR THE TARGETED DEGRADATION OF ESTROGEN RECEPTORS” (Endotarget Inc., priority 2021, published 2022).

Key:
Assay type in all cases: cell-based
ER = molecular target: T1, ER (Homo sapiens, UniProt P03372); experiment: ER antagonism (T47D ERE luciferase), T47d-kb-Luc cells; conditions: read-out: IC50 (ER antagonistm)
T1 construct: endogenous in cells; host or cells: T47d-kb-Luc (T47D stably transfected with a luciferase reporter gene only)
T1 sequence (P03372 1-595): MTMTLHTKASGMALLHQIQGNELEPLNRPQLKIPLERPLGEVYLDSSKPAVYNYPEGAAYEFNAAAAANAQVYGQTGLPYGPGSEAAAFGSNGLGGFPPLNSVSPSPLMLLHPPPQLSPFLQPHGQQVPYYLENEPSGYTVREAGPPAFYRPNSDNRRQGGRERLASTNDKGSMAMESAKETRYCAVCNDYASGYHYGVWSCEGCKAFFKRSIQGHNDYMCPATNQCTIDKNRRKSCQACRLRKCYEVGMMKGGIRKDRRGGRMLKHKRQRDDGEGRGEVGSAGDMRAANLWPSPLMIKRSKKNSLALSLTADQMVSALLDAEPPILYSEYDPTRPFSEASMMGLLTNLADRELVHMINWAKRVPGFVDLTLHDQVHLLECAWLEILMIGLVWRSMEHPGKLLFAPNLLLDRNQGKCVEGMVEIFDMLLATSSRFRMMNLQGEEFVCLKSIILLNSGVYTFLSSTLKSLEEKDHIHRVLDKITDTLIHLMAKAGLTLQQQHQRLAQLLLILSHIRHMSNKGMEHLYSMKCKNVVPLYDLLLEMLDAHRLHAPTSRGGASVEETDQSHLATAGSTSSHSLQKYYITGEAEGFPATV
Procedure: The Antiestrogenic Activity of the Exemplary Compounds was Assessed in T47d-kb-Luc Stably Transfected Human Breast Cancer Cell
Antagonist activities were measured by the compound's ability to inhibit the activity of estradiol, the natural estrogen. Data were then normalized relative to the activity of the estradiol control and determinations were performed for five concentrations of the samples in quadruplicate in at least three separate experiments.

ERα = molecular target: T2, ERα (Homo sapiens, UniProt P03372); experiment: ER degradation in MCF-7 cells (Western blot); conditions: for DC50: ER degradation, 24 hours; for Dmax: MCF7, Maximal ER degradation, read-out: Dmax
T2 construct: endogenous in cells; host or cells: MCF-7
T2 sequence (P03372 1-595): T1 sequence (P03372 1-595)
Procedure: Degradation of ER in MCF-7 Breast Cancer Cells by Exemplary Compounds of the Present Disclosure
MCF-7 cells were plated in 24-well plates at a density of 10^5 cells/well. Media containing various drug concentrations were added on the day following plating (day 0) and allowed to incubate for 24 hours for Western blot. Media with the tested compound was changed every other day. Cells were lysed, snapped frozen in liquid nitrogen, and stored at −80° C. until assay for ERα. Media were removed and dishes were washed with 1× DPBS. Lysates were made by adding 150 μL of complete lysis solution and scraping cells into a 1.5 mL microcentrifuge tube. Lysates were placed on a rotisserie at 4° C. for 30 min and then spun at 4° C. at 12000 rcf for 10 min. Supernatants were assayed for protein content, snap-frozen, and stored a −80° C. if not run immediately. Then 50 μg of protein was subjected to Western blot protocol. Membranes were blocked and then incubated with 1:200 dilution of ERα antibody at 4° C. overnight followed by 1:10000 dilution of secondary antibody for 1 h at room temperature. They were then imaged on a LICOR infrared scanner.
FIGS. 1 to 10 show the ER degradation efficacy of compounds 3, 5, 9, 11, 12, 16, 18, 19, 20, 21, 23, 24, 25, 26, 27, 28, 29, 30, 31, 32, 33, 34, 37, 38, and 40 in MCF-7 cells at various concentrations. Degradation of ER was expressed as an DC50 value and was determined for exemplary compounds in Table 1 by calculation of the concentration of compound that was required to give a 50% reduction of ER expression level. Maximal degradation of ER was expressed as a Dmax value by measuring the highest percentage of ER reduction achieved by exemplary compound in the treatment concentration range.

[1] = tested on: MCF-7 breast cancer cells; experiment: MCF-7 proliferation / cell viability assay; conditions: Homo sapiens, MCF7; MCF-7 proliferation with 0.1 nM 17-beta estradiol; read-out: IC50 (anti-proliferation)
Procedure: The Anti-Proliferative Activities of the Exemplary Compounds were Assessed by a Cell Viability Assay in MCF-7 Breast Cancer Cells
MCF-7 cells were plated in six-well plates at a density of 50,000 each well in 5% FBS DMEM medium. The cells were then treated with exemplary compounds or fulvestrant separately at 6 different doses ranging from 10^−10 M to 10^−5 M for 5 days, while equal volumes of DMSO were used as vehicle controls. Viable cell numbers were counted with a Z Series Coulter Counter instrument (Beckman-Coulter) following manufacturer's instructions. The ratio of drug treated viable cell numbers to vehicle treated viable cell numbers was defined as survival ratio where the control has the survival ratio of 100%.

SMILES	IC50 (ER) [nM]	DC50 (ERα) [nM]	Dmax (ERα) [%]	IC50 [1] [nM]
CC/C(=C(/c1ccc(OCCN2CCC(CCN3CCN(c4ccc5c(c4)CN(C4CCC(=O)NC4=O)C5=O)CC3)CC2)cc1)c1ccc(B(O)O)cc1)c1ccccc1 (centres unmarked) [Compound 29, (Z)-(4-(1-(4-(2-(4-(2-(4-(2-(2,6-dioxopiperidin-3-yl)-1-oxoisoindolin-5-yl)piperazin-1-yl)ethyl)piperidin-1-yl)ethoxy)phenyl)-2-phenylbut-1-en-1-yl)phenyl)boronic acid]	10 to 50	10 to 50	> 90	10 to 50
CC/C(=C(\c1ccc(OCCN2CCC(CCN3CCN(c4ccc5c(c4)CN(C4CCC(=O)NC4=O)C5=O)CC3)CC2)cc1)c1ccc(B(O)O)cc1)c1ccccc1 (stereo not drawn) [Compound 30, (E)-(4-(1-(4-(2-(4-(2-(4-(2-(2,6-dioxopiperidin-3-yl)-1-oxoisoindolin-5-yl)piperazin-1-yl)ethyl)piperidin-1-yl)ethoxy)phenyl)-2-phenylbut-1-en-l-yl)phenyl)boronic acid]	10 to 50	< 10	> 90	10 to 50
CC/C(=C(/c1ccc(OCCN2CCC(N3CCN(c4ccc5c(c4)C(=O)N(C4CCC(=O)NC4=O)C5=O)CC3)CC2)cc1)c1ccc(B(O)O)cc1)c1ccccc1 (centres unmarked) [Compound 31, (Z)-(4-(1-(4-(2-(4-(4-(2-(2,6-dioxopiperidin-3-yl)-1,3-dioxoisoindolin-5-yl)piperazin-1-yl)piperidin-1-yl)ethoxy)phenyl)-2-phenylbut-1-en-1-yl)phenyl)boronic acid]	> 50	10 to 50	> 90	> 50
CC/C(=C(\c1ccc(OCCN2CCC(N3CCN(c4ccc5c(c4)C(=O)N(C4CCC(=O)NC4=O)C5=O)CC3)CC2)cc1)c1ccc(B(O)O)cc1)c1ccccc1 (centres unmarked) [Compound 32, (E)-(4-(1-(4-(2-(4-(4-(2-(2,6-dioxopiperidin-3-yl)-1,3-dioxoisoindolin-5-yl)piperazin-1-yl)piperidin-1-yl)ethoxy)phenyl)-2-phenylbut-1-en-1-yl)phenyl)boronic acid]	> 50	10 to 50	> 90	> 50
CC/C(=C(/c1ccc(OCCN2CCC(C3CCN(c4ccc5c(c4)C(=O)N(C4CCC(=O)NC4=O)C5=O)CC3)CC2)cc1)c1ccc(B(O)O)cc1)c1ccccc1 (centres unmarked) [Compound 33, (Z)-(4-(1-(4-(2-(1′-(2-(2,6-dioxopiperidin-3-yl)-1,3-dioxoisoindolin-5-yl)-[4,4′-bipiperidin]-1-yl)ethoxy)phenyl)-2-phenylbut-1-en-1-yl)phenyl)boronic acid]	10 to 50	< 10	> 90	10 to 50
CC/C(=C(\c1ccc(OCCN2CCC(C3CCN(c4ccc5c(c4)C(=O)N(C4CCC(=O)NC4=O)C5=O)CC3)CC2)cc1)c1ccc(B(O)O)cc1)c1ccccc1 (centres unmarked) [Compound 34, (E)-(4-(1-(4-(2-(1′-(2-(2,6-dioxopiperidin-3-yl)-1,3-dioxoisoindolin-5-yl)-[4,4′-bipiperidin]-1-yl)ethoxy)phenyl)-2-phenylbut-1-en-1-yl)phenyl)boronic acid]	10 to 50	< 10	> 90	10 to 50
CC/C(=C(/c1ccc(OCCCCCN2CCN(c3ccc4c(c3)CN(C3CCC(=O)NC3=O)C4=O)CC2)cc1)c1ccc(B(O)O)cc1)c1ccccc1 (centres unmarked) [Compound 35, (Z)-(4-(1-(4-((5-(4-(2-(2,6-dioxopiperidin-3-yl)-1-oxoisoindolin-5-yl)piperazin-1-yl)pentyl)oxy)phenyl)-2-phenylbut-1-en-1-yl)phenyl)boronic acid]	10 to 50	10 to 50	> 90	10 to 50
CC/C(=C(\c1ccc(OCCCCCN2CCN(c3ccc4c(c3)CN(C3CCC(=O)NC3=O)C4=O)CC2)cc1)c1ccc(B(O)O)cc1)c1ccccc1 (centres unmarked) [Compound 36]	10 to 50	10 to 50	> 90	10 to 50
CC/C(=C(/c1ccc(OCCN2CCN(CCCN3CCN(c4ccc5c(c4)C(=O)N(C4CCC(=O)NC4=O)C5=O)CC3)CC2)cc1)c1ccc(B(O)O)cc1)c1ccccc1 (centres unmarked) [Compound 37, (Z)-(4-(1-(4-(2-(4-(3-(4-(2-(2,6-dioxopiperidin-3-yl)-1,3-dioxoisoindolin-5-yl)piperazin-1-yl)propyl)piperazin-1-yl)ethoxy)phenyl)-2-phenylbut-1-en-1-yl)phenyl)boronic acid]	10 to 50	< 10	> 90	10 to 50
CC/C(=C(\c1ccc(OCCN2CCN(CCCN3CCN(c4ccc5c(c4)C(=O)N(C4CCC(=O)NC4=O)C5=O)CC3)CC2)cc1)c1ccc(B(O)O)cc1)c1ccccc1 (centres unmarked) [Compound 38, (E)-(4-(1-(4-(2-(4-(3-(4-(2-(2,6-dioxopiperidin-3-yl)-1,3-dioxoisoindolin-5-yl)piperazin-1-yl)propyl)piperazin-1-yl)ethoxy)phenyl)-2-phenylbut-1-en-1-yl)phenyl)boronic acid]	10 to 50	< 10	> 90	10 to 50
CC/C(=C(\c1ccc(B(O)O)cc1)c1ccc(N2CCC(CNC3CCN(c4ccc5c(c4)C(=O)N(C4CCC(=O)NC4=O)C5=O)CC3)CC2)cc1)c1ccccc1 (centres unmarked) [Compound 39, (Z)-(4-(1-(4-(4-(((1-(2-(2,6-dioxopiperidin-3-yl)-1,3-dioxoisoindolin-5-yl)piperidin-4-yl)amino)methyl)piperidin-1-yl)phenyl)-2-phenylbut-1-en-1-yl)phenyl)boronic acid]	10 to 50	< 10	> 90	10 to 50
CC/C(=C(/c1ccc(B(O)O)cc1)c1ccc(N2CCC(CNC3CCN(c4ccc5c(c4)C(=O)N(C4CCC(=O)NC4=O)C5=O)CC3)CC2)cc1)c1ccccc1 (centres unmarked) [Compound 40, (E)-(4-(1-(4-(4-(((1-(2-(2,6-dioxopiperidin-3-yl)-1,3-dioxoisoindolin-5-yl)piperidin-4-yl)amino)methyl)piperidin-1-yl)phenyl)-2-phenylbut-1-en-1-yl)phenyl)boronic acid]	10 to 50	< 10	> 90	10 to 50
CC/C(=C(/c1ccc(OCCN2CCN(c3ccc4c(c3)C(=O)N(C3CCC(=O)NC3=O)C4=O)CC2)cc1)c1ccc(B(O)O)cc1)c1ccccc1 (centres unmarked) [Compound 41, (Z)-(4-(1-(4-(2-(4-(2-(2,6-dioxopiperidin-3-yl)-1,3-dioxoisoindolin-5-yl)piperazin-1-yl)ethoxy)phenyl)-2-phenylbut-1-en-1-yl)phenyl)boronic acid]	10 to 50	10 to 50	> 50	10 to 50
CC/C(=C(\c1ccc(OCCN2CCN(c3ccc4c(c3)C(=O)N(C3CCC(=O)NC3=O)C4=O)CC2)cc1)c1ccc(B(O)O)cc1)c1ccccc1 (centres unmarked) [Compound 42, (E)-(4-(1-(4-(2-(4-(2-(2,6-dioxopiperidin-3-yl)-1,3-dioxoisoindolin-5-yl)piperazin-1 yl)ethoxy)phenyl)-2-phenylbut-1-en-1-yl)phenyl)boronic acid]	10 to 50	10 to 50	> 50	10 to 50
